Paper PMC12259270, “Sensory neuron–expressed FGF13 controls nociceptive signaling in diabetic neuropathy models” (The Journal of Clinical Investigation, 2025)
Residues, ends and D or L forms follow the SMILES beside them. *: point of attachment. Cbz = O=C(OCc1ccccc1)*; OtBu = CC(C)(C)O*

Test system: Na+ currents in hIPSC-derived sensory neurons (RealDRG)
Assay: Whole-cell voltage clamp, hIPSC-derived sensory neurons (RealDRG) with Nav1.8 blocker A-803467
Assay type: cell-based, human
Conditions: for Long-term inactivation, 2nd Pulse / Long-term inactivation, 3rd Pulse / Long-term inactivation, 4th Pulse / Activation / Peak Density / Steady-State inactivation / Tau (τ): RealDRG
Procedure: Next, we conducted whole-cell patch-clamp electrophysiological recordings in hIPSC-derived sensory neurons under three conditions: unstimulated and treated with 0.07% ethanol (capsaicin vehicle), treated with capsaicin (100 nM, 10 minutes), and treated with capsaicin plus SB-366791 (10 μM), a selective TRPV1 inhibitor. Each group was exposed to either vehicle (0.01% DMSO) or PW164 (50 μM), with all recordings performed in the presence of the Nav1.8 blocker A-803467 (300 nM) ([41]). The experimental groups are color coded in Figure 2A. Capsaicin caused potentiation of INa (Figure 2A) and induced hyperpolarizing shifts in the V1/2 of activation (Figure 2B) and SSI (Figure 2C). […] Next, we investigated whether silencing FGF13 could replicate PW164’s effects and prevent additional activity of the compound. hIPSC-derived sensory neurons were transfected with a previously validated pAAV-shFGF13-GFP construct ([42]) (Supplemental Figure 8). […] Neither PW164 nor FGF13 silencing affected Na+ currents in neurons transfected with pAAV-shCTRL-GFP or pAAV-shFGF13-GFP, whether unstimulated or treated with capsaicin in the presence of ProTx II (Supplemental Figure 9 and Supplemental Table 6). Thus, PW164 selectively modulated FGF13-dependent Na^+ current sensitization via TRPV1, with FGF13 silencing mimicking and validating PW164’s effect. […]
Whole-cell patch clamp electrophysiology
HEK293-Nav1.7 cells, HEK293 stably expressing human Nav1.6 (HEK-Nav1.6), HEK293 stably expressing human Nav1.5 (HEK-Nav1.5), human hIPSC-derived sensory neurons (RealDRGTM from Anatomic Incorporated 1020F1-1M) and donor-derived DRG neurons were plated at low density on glass coverslips and processed for whole-cell patch clamp electrophysiology in voltage-clamp and/or current clamp mode. Whole-cell patch electrophysiological experiments were conducted following previously published studies (26). Current densities were obtained by dividing INa amplitude by membrane capacitance. Current –voltage relationships were generated by plotting current density as a function of the […]. Conductance (G Na) was calculated by the […]
where INa is the current amplitude at voltage Vm, and Erev is the Na+ reversal potential.
Activation curves were derived by plotting normalized GNa as a function of test potential and fitted using […]
Where GNa,Max is the maximum conductance, Va is the membrane potential of half-maximal activation, Em is the membrane voltage and k is the slope factor. For steady -state inactivation, normalized current amplitude (INa/INa,Max) at the test potential was plotted as a function of prepulse potential (Vm) and fitted using the […]
Where Vh is the potential of half-maximal inactivation, E m is the membrane voltage, and k is the slope factor.
Transient INa inactivation decay was estimated with the standard exponential equation. Inactivation time constant (tau, τ) was fitted with the following equation: […]
where I(t) is the amplitude of the current at time t and Iss is the steady-state current during a single voltage-step.
The goodness of fitting was determined by correlation coefficient (R), and the cutoff of R was set at 0.85. To observe effects on long-term inactivation (LTI), a four-step protocol was employed during which cells were subjected to four 0 mV, 20 ms depolarization pulses separated by −90 mV, 40 ms recovery intervals. To control for various cell sizes, the current densities were calculated by dividing INa peak current amplitude/membrane capacitance (Cm). To represent the fraction of channels entering into LTI, the peak INa observed during depolarization cycles 2-4 was normalized to the peak INa observed during depolarization cycle 1 (INa/INa,Cycle 1) and plotted as a function of the depolarization cycle.
The cumulative (frequency-dependent) use-dependency was determined by applying 20 pulses with a depolarization to −10 mV (50 ms duration) and 50 ms recovery intervals with a train of 20 pulses at 10 Hz from a holding potential at -70 mV. […]

[1] = + A-803467, AAV-FGF13 + PW164, no capsaicin
[2] = + A-803467, Cap + Control + PW164
[3] = + A-803467, Cap+ AAV-FGF13 PW164
[4] = + A-803467, Cap+ ShFGF13 + PW164
[5] = + A-803467, Cap- Control (pAAV-shCTRL-GFP) + PW164
[6] = + A-803467, Cap- Control + PW164
[7] = + A-803467, Cap- ShFGF13 + PW164
[8] = + Nav1.8 blocker A-803467, Cap+ - PW164
[9] = + Nav1.8 blocker A-803467, Cap+ PW164
[10] = + Nav1.8 blocker A-803467, Cap+ SB-366791 - PW164
[11] = + Nav1.8 blocker A-803467, Cap+ SB-366791 PW164
[12] = + Nav1.8 blocker A-803467, Naïve + PW164
[13] = + Nav1.8 blocker A-803467, Naïve - PW164

## COC(=O)[C@@H](NC(=O)[C@H](CCC(=O)OC(C)(C)C)NC(=O)[C@H](CC(C)C)NC(=O)[C@@H]1CCCN1C(=O)OCc1ccccc1)C(C)C [PW164] (Cbz-PLE(OtBu)V-OMe)
PW164 50 μM, 30–60 minutes, capsaicin 100 nM, except LTI
  effect on capsaicin-induced Na+ current phenotypes: reversed capsaicin-induced phenotypes
PW164 50 μM, unstimulated control, or SB-366791, or ProTx II
  effect on Na+ currents without sensitization: no significant alterations
+ A-803467, AAV FGF13 + PW64
  Long-term inactivation, 2nd Pulse: −68.4 ± 7.1 % maximal Na+ current
  Long-term inactivation, 3rd Pulse: −61.9 ± 7.5 % maximal Na+ current
  Long-term inactivation, 4th Pulse: −58.5 ± 8.3 % maximal Na+ current
[1]
  Activation: −24.3 ± 0.8 mV
  Peak Density: −114.3 ± 5.6 pA/pF
  Steady-State inactivation: −75.65 ± 1.6 mV
  Tau (τ): 1.65 ± 0.14 ms
[2]
  Activation: −21.92 ± 0.87 mV
  Long-term inactivation, 2nd Pulse: −59.86 ± 2.37 % maximal Na+ current
  Long-term inactivation, 3rd Pulse: −49.84 ± 2.93 % maximal Na+ current
  Long-term inactivation, 4th Pulse: −46.98 ± 3.3 % maximal Na+ current
  Peak Density: −92.79 ± 7.96 pA/pF
  Steady-State inactivation: −58.11 ± 1.04 mV
  Tau (τ): 1.42 ± 0.09 ms
[3]
  Activation: −27.8 ± 0.81 mV
  Peak Density: −91.7 ± 10.3 pA/pF
  Steady-State inactivation: −73.36 ± 1.4 mV
  Tau (τ): 1.63 ± 0.22 ms
+ A-803467, Cap+ AAV-GFP PW164
  Activation: −28.39 ± 0.59 mV
  Peak Density: −87.62 ± 9.5 pA/pF
  Steady-State inactivation: −75.15 ± 1.69 mV
  Tau (τ): 2.0 ± 0.32 ms
+ A-803467, Cap+ GFP PW164
  Long-term inactivation, 2nd Pulse: −53.56 ± 4.9 % maximal Na+ current
  Long-term inactivation, 3rd Pulse: −54.96 ± 3.6 % maximal Na+ current
  Long-term inactivation, 4th Pulse: −54.22 ± 4.3 % maximal Na+ current
[4]
  Activation: −32.72 ± 1.59 mV
  Long-term inactivation, 2nd Pulse: −74.3 ± 3.96 % maximal Na+ current
  Long-term inactivation, 3rd Pulse: −68.4 ± 5.4 % maximal Na+ current
  Long-term inactivation, 4th Pulse: −67.2 ± 5.2 % maximal Na+ current
  Peak Density: −76.49 ± 4.86 pA/pF
  Steady-State inactivation: −67.68 ± 1.53 mV
  Tau (τ): 1.38 ± 0.10 ms
+ A-803467, Cap+ hFGF13 PW164
  Long-term inactivation, 2nd Pulse: −55.4 ± 2.7 % maximal Na+ current
  Long-term inactivation, 3rd Pulse: −52.0 ± 3.7 % maximal Na+ current
  Long-term inactivation, 4th Pulse: −45.4 ± 3.1 % maximal Na+ current
[5]
  Activation: −25.74 ± 1.14 mV
  Peak Density: −111.31 ± 11.73 pA/pF
  Steady-State inactivation: −60.96±1.53 mV
  Tau (τ): 1.18 ± 0.09 ms
[6]
  Long-term inactivation, 2nd Pulse: −86.72 ± 2.2 % maximal Na+ current
  Long-term inactivation, 3rd Pulse: −82.89 ± 3.3 % maximal Na+ current
  Long-term inactivation, 4th Pulse: −81.6 ± 3.6 % maximal Na+ current
[7]
  Activation: −29.77 ± 1.74 mV
  Long-term inactivation, 2nd Pulse: −82.82 ± 2.85 % maximal Na+ current
  Long-term inactivation, 3rd Pulse: −81.52 ± 3.86 % maximal Na+ current
  Long-term inactivation, 4th Pulse: −81.16 ± 4.06 % maximal Na+ current
  Peak Density: −96.02 ± 8.94 pA/pF
  Steady-State inactivation: −64.99 ± 1.30 mV
  Tau (τ): 0.98 ± 0.09 ms
[8]
  Activation: −27.51 ± 1.22 mV
  Peak Density: −71.9 ± 9.4 pA/pF
  Steady-State inactivation: −74.71 ± 1.43 mV
  Tau (τ): 1.39 ± 0.09 ms
[9]
  Long-term inactivation, 2nd Pulse: −45.59 ± 3.33 % maximal Na+ current
  Long-term inactivation, 3rd Pulse: −38.18 ± 2.61 % maximal Na+ current
  Long-term inactivation, 4th Pulse: −32.17 ± 4.29 % maximal Na+ current
[10]
  Activation: −30.7 ± 0.53 mV
  Peak Density: −95.2 ± 9.9 pA/pF
  Steady-State inactivation: −73.56 ± 1.33 mV
  Tau (τ): 1.52 ± 0.11 ms
[11]
  Long-term inactivation, 2nd Pulse: −54.94 ± 3.35 % maximal Na+ current
  Long-term inactivation, 3rd Pulse: −47.15 ± 2.81 % maximal Na+ current
  Long-term inactivation, 4th Pulse: −45.57 ± 4.0 % maximal Na+ current
[12]
  Long-term inactivation, 2nd Pulse: −74.84 ± 5.46 % maximal Na+ current
  Long-term inactivation, 3rd Pulse: −67.02 ± 3.43 % maximal Na+ current
  Long-term inactivation, 4th Pulse: −65.63 ± 4.22 % maximal Na+ current
[13]
  Activation: −30.27 ± 0.75 mV
  Peak Density: −84.1 ± 5.9 pA/pF
  Steady-State inactivation: −75.11 ± 0.78 mV
  Tau (τ): 0.98 ± 0.09 ms
pAAV-FGF13-GFP neurons, PW164 50 μM
  effect on INa potentiation by FGF13 overexpression: fully attenuated
